According to patent US9765109B2, “2′-arabino-fluorooligonucleotide N3′→P5′ phosphoramidates: their synthesis and use” (Geron Corporation, priority 2000, dated 2017):

What was measured:
[1] = system: dA/dT duplex part of d(A10C4T10) hairpin; assay: Thermal denaturation (Tm) of triplexes with dsDNA; assay type: binding; settings: for Tm, dsDNA: triplex
Experimental: (§1) ^31P NMR spectra were obtained on a Varian 400 MHz spectrometer. ^31P NMR spectra were referenced against 85% aqueous phosphoric acid. Anion exchange HPLC was performed using a Dionex DX 500 Chromatography System, with a Pharmacia Biotech Mono Q HR 5/5 or 10/16 ion exchange columns. Ion exchange HPLC was performed on the Dionex DX 500 system, using a Pharmacia Mono Q HR 5/5 column. Buffer A and B were: 10 mM NaOH, pH12 and 10 mM NaOH, 1.5 M NaCl, pH12, respectively. Oligonucleotides were eluted using a 1.5%/min. linear gradient of buffer B in A; flow 0.5 mL/min. Mass spectral analysis was performed by Mass Consortium, San Diego, Calif. MALDI-TOF analysis of oligonucleotides was obtained using a PerSpective Biosystems Voyager Elite mass spectrometer with delayed extraction. Thermal dissociation experiments were conducted on a Cary Bio 100 UV-Vis spectrometer.
^ad, r, and a correspond to the 2′-deoxy, 2′-ribo-fluoro and to 2′-arabino-fluoronucleosides respectively; p and n correspond to the internucleoside phosphodiester and N3′→P5′ phosphoramidate linkages, respectively; ^bmelting temperature, Tm (±0.5° C.), of the duplexes formed with natural phosphodiester ssDNA or RNA strands, or: ^etriplexes formed with dA/dT duplex part of d(A10C4T10) hairpin. Buffers: ^c150 mM NaCl, 10 mM sodium phosphate buffer pit 7.4—first number, or in: ^dthe same buffer containing an additional 10 mM magnesium chloride—second number; n.o or n.d—the melting transitions and Tm's were not observed or not determined, respectively. […]

[2] = system: natural phosphodiester ssDNA; assay: Thermal denaturation (Tm) of duplexes with complementary DNA; assay type: binding; settings: for Tm, DNA: duplex
Experimental: as §1
(§2) ^ad, r, and a correspond to the 2′-deoxy, 2′-ribo-fluoro and to 2′-arabino-fluoronucleosides respectively; p and n correspond to the internucleoside phosphodiester and N3′→P5′ phosphoramidate linkages, respectively; ^bmelting temperature, Tm (±0.5° C.), of the duplexes formed with natural phosphodiester ssDNA or RNA strands, or: ^etriplexes formed with dA/dT duplex part of d(A10C4T10) hairpin. Buffers: ^c150 mM NaCl, 10 mM sodium phosphate buffer pit 7.4—first number, or in: ^dthe same buffer containing an additional 10 mM magnesium chloride—second number; n.o or n.d—the melting transitions and Tm's were not observed or not determined, respectively.
(§3) The ability of N3′→P5′ phosphoramidate 2′-arabino-fluorooligonucleotides to form complexes with complementary DNA and RNA strands was examined and compared with related oligonucleotide analogues using thermal denaturation experiments. […] (compare experiments 1 and 2, Table 1). […] Substitution of 2′-deoxy-3′-aminonucleosides by 2′-arabino-fluoro-3′-amino counterparts stabilized duplexes, by about 2-7° C., with DNA and RNA in a low ionic strength buffer. […] (compare experiments 3 and 6, Table 1).

[3] = system: natural phosphodiester RNA strand; assay: Thermal denaturation (Tm) of duplexes with complementary RNA; assay type: binding; settings: for Tm, RNA: duplex; for Tm difference of duplex with RNA: relative to 2′-deoxy phosphodiester oligonucleotide (experiment 1)
Experimental: as §1, §2, §3

[4] = Stability in concentrated aqueous ammonia, judged by IE HPLC; assay type: physicochemical; settings: 24 hours, 55° C., IE HPLC analysis
Experimental: (§4) It was reported that the 2′-ribo-fluoropyrimidine containing oligonucleotides with N3′→P5′ phosphoramidate or with phosphodiester internucleoside linkages are somewhat labile during treatment with aqueous ammonia at 55° C. (Schultz et al., Nucl. Acids Res., 24:2966-2973, 1996; Krug et al., Nucleosides Nucleotides, 8:1473-1483, 1989). Under these basic conditions pyrimidine-O2 mediated elimination of the 2′-fluorine atom takes place, resulting in formation of 2,3′-O-anhydronucleosides and multiple products of their consequent reactions with aqueous ammonia, including 2′-arabino-hydroxyl nucleosides (Krug et al., Nucleosides Nucleotides, 8:1473-1483, 1989). In contrast, the prepared 2′-arabino-fluoro phosphoramidate oligonucleotides were stable under these conditions.

[5] = Acid stability, half-life at pH 3; assay type: physicochemical
Experimental: as §4

[6] = 150 mM NaCl, 10 mM sodium phosphate buffer (first number)
[7] = same buffer with additional 10 mM magnesium chloride (second number)
[8] = single value given, buffer not stated

| Substance | Tm, dsDNA [1, 6] | Tm, dsDNA [1, 7] | Tm, DNA [2, 6] | Tm, DNA [2, 7] [°C] | Tm, RNA [3, 6] | Tm, RNA [3, 7] | Tm difference of complexes with both DNA and RNA strands ([3]; most stable complexes, compare experiments 5, 6 and 7) | Stability on exposure to concentrated aqueous ammonia [4] | Tm difference of complex with DNA (destabilization) ([2]; relative to 2′-deoxy phosphodiester oligonucleotide (experiments 1 and 2)) | Tm difference of duplex with RNA [3] | Relative stability of triplex with dsDNA ([1]; versus SEQ ID NO:6 and SEQ ID NOs:3-5, but not SEQ ID NO:7) | Base and acid stability (summary statement) [5] | Tm, RNA [3, 8] [°C] | Effect of increasing buffer ionic strength on Tm of duplex with RNA [3] | Tm difference of duplexes ([3]; relative to 2′-arabino-fluoro phosphodiester SEQ ID NO:5 (experiments 3 and 6), DNA and RNA) |
| --- | --- | --- | --- | --- | --- | --- | --- | --- | --- | --- | --- | --- | --- | --- | --- |
| dT-r(Un^fUn^fUn^fUn^fUn^fUn^fUn^fUn^f Un^f) (TUUUUUUUUU; 2′-ribo-fluoro phosphoramidate; 5′ dT; contains 2 prime-deoxy and 2 prime-ribo- fluoronucleotides; test compounds) [SEQ ID NO:7, 2′-ribo-fluoro N3′→P5′ phosphoramidate oligonucleotide] | 42.2 °C | 54.1 °C | 37.4 °C | 56.3 | 55.5 °C | 61.9 °C | 14-21 °C | converted into a very complex mixture of products |  |  |  |  |  |  |  |
| d(UpUpUpUpUpUpUpUpUpT) (UUUUUUUUUT; contains 2 prime-deoxy nucleosides; test compounds) [SEQ ID NO:3, 2′-deoxy phosphodiester oligonucleotide] | n.o;^c n.o^d | n.o;^c n.o^d | 16.7 °C | 24.6 | 17.9 °C | 20.3 °C |  |  |  |  |  |  |  |  |  |
| r(Up^fUp^fUp^fUp^fUp^fUp^fUp^fUp^fUp^fT) (UUUUUUUUUT; 2′-ribo-fluoro; contains 2 prime-ribo-fluoronucleosides; test compounds) [SEQ ID NO:4, 2′-ribo-fluoro phosphodiester decanucleotide] | n.o; n.o | n.o; n.o | n.o | 18.0 | 32.9 °C | 36.6 °C |  |  | −6.7-16 °C | 15.0-16.3 °C |  |  |  |  |  |
| dT-a(Un^fUn^fUn^fUn^fUn^fUn^fUn^fUn^f Un^f) (TUUUUUUUUU; 2′-arabino-fluoro phosphoramidate; 5′ dT; contains 2 prime-deoxy and 2 prime-arabino- fluoronucleosides; test compounds) [SEQ ID NO:8, 2′-arabino-fluoro N3′→P5′ phosphoramidate decanucleotide] | 22.0 °C | 31.2 °C | 25.7 °C | 37.0 | 40.0; 40.0 °C | 40.0; 40.0 °C |  | practically intact |  |  | more stable triplex | base and acid stable |  |  |  |
| a(Cn^fUn^fCn^fUn^fCn^fUn^fGnCn^fCn^f) (CUCUCUGCC; 2'-arabino-fluoro phosphoramidate backbone; contains 2 prime-arabino-fluoronucleosides; test compounds) [SEQ ID NO:10, mixed base 2′-arabino-fluoro phosphoramidate oligonucleotide] |  |  |  |  |  |  |  |  |  |  |  |  | 66.8 |  |  |
| d(CnUnCnUnCnUnGnCnCn) (CUCUCUGCC; DNA, backbone, methylation of C and T or U not given here; phosphoramidate linkages) [SEQ ID NO:9, mixed base 2′-deoxy phosphoramidate oligonucleotide] |  |  |  |  |  |  |  |  |  |  |  |  | 66.7 |  |  |
| d(UnUnUnUnUnUnUnUnUnT) (UUUUUUUUUT; N3′→P5′ phosphoramidate; contains 2 prime-deoxy nucleosides; test compounds) [SEQ ID NO:6, 2′-deoxy N3′→P5′ phosphoramidate oligonucleotide] | <15; n.d ° C. |  | 18.5 °C | 38.2 | 38.1 °C | 47.2 °C |  |  |  |  |  |  |  | no effect | 8.7-12.5 °C |
| a(Up^fUp^fUp^fUp^fUp^fUp^fUp^fUp^fUp^fT) [SEQ ID NO:5] | < 14 °C | 20.9 °C | 17.0 °C | 25.0 | 27.5 °C | 28.6 °C |  |  |  | 8.3-9.6 °C |  |  |  |  |  |
